{"source": "ChEMBL document CHEMBL1687734", "about": "“Pharmacokinetics of EDP-420 after multiple oral doses in healthy adult volunteers and in a bioequivalence study” (Antimicrob Agents Chemother, 2009)", "key": {"[1]": {"assay": "Half life in 8 hrs fasted healthy human plasma at 200 mg, po administered as single dose of two-100 mg capsules", "type": "ADME, organism-based"}, "[2]": {"assay": "Ratio of AUC (0 to 24 hrs) in Alveolar macrophage of healthy human to AUC (0 to 24 hrs) in healthy human plasma at 400 mg, po administered as single dose", "type": "ADME, organism-based", "conditions": "alveolar macrophages / plasma"}, "Homo sapiens [3]": {"system": "Homo sapiens", "assay": "Toxicity in high-fat fed healthy human assessed as changes in ECG at 200 mg, po administered as single dose of two-100 mg capsules", "type": "organism-based", "conditions": "in vivo"}, "Homo sapiens [4]": {"system": "Homo sapiens", "assay": "Toxicity in high-fat fed healthy human assessed as changes in vital signs at 200 mg, po administered as single dose of two-100 mg capsules", "type": "organism-based", "conditions": "in vivo"}, "[5]": {"assay": "AUC (0 to infinity) in healthy human plasma at 200 mg, po once daily for 3 days measured after 3 days", "type": "ADME, organism-based", "design": "dose 200 mg, route oral, time infinity"}, "[6]": {"assay": "AUC (0 to last) in healthy human plasma at 200 mg, po once daily for 3 days measured after 1 day", "type": "ADME, organism-based", "design": "dose 200 mg, time 0 - last, route oral"}, "[7]": {"assay": "AUC (0 to last) in healthy human plasma at loading dose of 400 mg/day, po once daily for 3 days measured after 1 day", "type": "ADME, organism-based", "design": "dose 400 mg/day, time 0 - last, route oral"}, "[8]": {"assay": "Tmax in 8 hrs fasted healthy human plasma at 200 mg, po administered as single dose of suspension", "type": "ADME, organism-based"}, "Homo sapiens [9]": {"system": "Homo sapiens", "assay": "Toxicity in high-fat fed healthy human assessed as changes in liver functions at 200 mg, po administered as single dose of two-100 mg capsules", "type": "organism-based", "conditions": "in vivo"}, "[10]": {"assay": "AUC (0 to infinity) in healthy human plasma at 400 mg administered once on day 1 followed by 200 mg once daily for 2 days during 3 days of treatment measured after 3 days", "type": "ADME, organism-based", "design": "dose 400 mg, time infinity"}, "Homo sapiens [11]": {"system": "Homo sapiens", "assay": "Toxicity in healthy human assessed as severe adverse events at 400 mg administered once on day 1 followed by 200 mg once daily for 2 days during 3 days of treatment", "type": "organism-based", "conditions": "in vivo"}, "[12]": {"assay": "Cmax in healthy human plasma at loading dose of 400 mg/day, po once daily for 3 days measured after 1 day", "type": "ADME, organism-based", "design": "dose 400 mg/day, route oral"}, "[13]": {"assay": "AUC (0 to infinity) in high-fat fed healthy human plasma at 200 mg, po administered as single dose of two-100 mg capsules", "type": "ADME, organism-based", "design": "dose 200 mg, route oral, time infinity"}, "Homo sapiens [14]": {"system": "Homo sapiens", "assay": "Ratio of AUC (0 to 24 hrs) in healthy human plasma at loading dose of 400 mg/day, po once daily measured on 1 day to AUC (0 to 24 hrs) in healthy human plasma at 400 mg administered once on day 1 followed by 200 mg once daily for 2 days during 3 days of treatment measured on day 3", "type": "ADME, organism-based", "conditions": "in vivo"}, "Homo sapiens [15]": {"system": "Homo sapiens", "assay": "Ratio of AUC (0 to infinity)in 8 hrs fasted healthy human plasma at 200 mg, po administered as single dose of two-100 mg capsules to AUC (0 to infinity) in 8 hrs fasted healthy human plasma assessed as EDP-420 9-keto level at 200 mg, po administered as single dose of two-100 mg capsules", "type": "ADME, organism-based", "conditions": "in vivo"}, "[16]": {"assay": "Tmax in healthy human plasma at 200 mg, po once daily for 3 days measured after 3 days", "type": "ADME, organism-based"}, "Homo sapiens [17]": {"system": "Homo sapiens", "assay": "Ratio of AUC (0 to infinity) in high-fat fed healthy human plasma at 200 mg, po administered as single dose of two-100 mg capsules to AUC (0 to infinity) in high-fat fed healthy human plasma assessed as EDP-420 9-keto level at 200 mg, po administered as single dose of two-100 mg capsules", "type": "ADME, organism-based", "conditions": "in vivo"}, "Homo sapiens [18]": {"system": "Homo sapiens", "assay": "Toxicity in healthy human in 8 hrs fasted healthy human assessed as changes in liver functions at 200 mg, po administered as single dose of two-100 mg capsules", "type": "organism-based", "conditions": "in vivo"}, "[19]": {"assay": "Tmax in healthy human plasma at 400 mg administered once on day 1 followed by 200 mg once daily for 2 days during 3 days of treatment measured after 3 days", "type": "ADME, organism-based"}, "Homo sapiens [20]": {"system": "Homo sapiens", "assay": "Ratio of Cmax in 8 hrs fasted healthy human plasma at 200 mg, po administered as single dose of suspension to cmax in 8 hrs fasted healthy human plasma assessed as EDP-420 9-keto level at 200 mg, po administered as single dose of suspension", "type": "ADME, organism-based", "conditions": "in vivo"}, "[21]": {"assay": "Cmax in healthy human plasma at 200 mg, po once daily for 3 days measured after 1 day", "type": "ADME, organism-based", "design": "dose 200 mg, route oral"}, "[22]": {"assay": "AUC (0 to last) in 8 hrs fasted healthy human plasma at 200 mg, po administered as single dose of suspension", "type": "ADME, organism-based", "design": "dose 200 mg, route oral, time 0 - last"}, "Homo sapiens [23]": {"system": "Homo sapiens", "assay": "Toxicity in healthy human in 8 hrs fasted healthy human assessed as changes in ECG at 200 mg, po administered as single dose of two-100 mg capsules", "type": "organism-based", "conditions": "in vivo"}, "[24]": {"assay": "Half life in 8 hrs fasted healthy human plasma at 200 mg, po administered as single dose of suspension", "type": "ADME, organism-based"}, "Homo sapiens [25]": {"system": "Homo sapiens", "assay": "Toxicity in healthy human in 8 hrs fasted healthy human assessed as incidence of severe adverse events at 200 mg, po administered as single dose of suspension", "type": "organism-based", "conditions": "in vivo"}, "[26]": {"assay": "AUC (0 to last) in healthy human plasma at 400 mg administered once on day 1 followed by 200 mg once daily for 2 days during 3 days of treatment measured after 3 days", "type": "ADME, organism-based", "design": "dose 400 mg, time 0 - last"}, "[27]": {"assay": "AUC (0 to last) in healthy human plasma at 200 mg, po once daily for 3 days measured after 3 days", "type": "ADME, organism-based", "design": "dose 200 mg, route oral, time 0 - last"}, "Homo sapiens [28]": {"system": "Homo sapiens", "assay": "Toxicity in healthy human in 8 hrs fasted healthy human assessed as changes in liver functions at 200 mg, po administered as single dose of suspension", "type": "organism-based", "conditions": "in vivo"}}}
{"smiles": "CC[C@H]1OC(=O)[C@H](C)C(=O)[C@H](C)[C@@H](O[C@@H]2O[C@H](C)C[C@H](N(C)C)[C@H]2O)[C@@]2(C)C[C@@H](C)/C(=N\\C(C)=O)[C@H](C)[C@@H](OC/C(=N\\OCc3ccc(-n4cccn4)nc3)CO2)[C@]1(C)O", "note": "[MODITHROMYCIN]", "values": [{"measurement": "half-life", "setting": "[1]", "result": 16.9, "unit": "h"}, {"measurement": "Kp", "setting": "[2]", "result": 245}, {"measurement": "Activity", "setting": "Homo sapiens [3]", "result": "Non-toxic"}, {"measurement": "Activity", "setting": "Homo sapiens [4]", "result": "Non-toxic"}, {"measurement": "AUC(0-inf)", "setting": "[5]", "result": 16.4, "unit": "µg·h/mL"}, {"measurement": "AUC(0-t) at 24 h", "setting": "[6]", "result": 6.2, "unit": "µg·h/mL"}, {"measurement": "AUC(0-t) at 24 h", "setting": "[7]", "result": 8.1, "unit": "µg·h/mL"}, {"measurement": "Tmax", "setting": "[8]", "result": 3.5, "unit": "h"}, {"measurement": "Activity", "setting": "Homo sapiens [9]", "result": "Non-toxic"}, {"measurement": "AUC(0-inf)", "setting": "[10]", "result": 15.1, "unit": "µg·h/mL"}, {"measurement": "Activity", "setting": "Homo sapiens [11]", "result": "Non-toxic"}, {"measurement": "Cmax", "setting": "[12]", "result": 0.548, "unit": "µg/mL"}, {"measurement": "AUC(0-inf)", "setting": "[13]", "result": 9.04, "unit": "µg·h/mL"}, {"measurement": "Ratio AUC", "setting": "Homo sapiens [14]", "result": 0.99}, {"measurement": "Ratio", "setting": "Homo sapiens [15]", "result": 0.093}, {"measurement": "Tmax", "setting": "[16]", "result": 3.25, "unit": "h"}, {"measurement": "Ratio", "setting": "Homo sapiens [17]", "result": 0.147}, {"measurement": "Activity", "setting": "Homo sapiens [18]", "result": "Non-toxic"}, {"measurement": "Tmax", "setting": "[19]", "result": 3.5, "unit": "h"}, {"measurement": "Ratio", "setting": "Homo sapiens [20]", "result": 0.065}, {"measurement": "Cmax", "setting": "[21]", "result": 0.432, "unit": "µg/mL"}, {"measurement": "AUC(0-t)", "setting": "[22]", "result": 8.27, "unit": "µg·h/mL"}, {"measurement": "Activity", "setting": "Homo sapiens [23]", "result": "Non-toxic"}, {"measurement": "half-life", "setting": "[24]", "result": 16.8, "unit": "h"}, {"measurement": "Activity", "setting": "Homo sapiens [25]", "result": "Non-toxic"}, {"measurement": "AUC(0-t)", "setting": "[26]", "result": 15, "unit": "µg·h/mL"}, {"measurement": "AUC(0-t) at 72 h", "setting": "[27]", "result": 16.4, "unit": "µg·h/mL"}, {"measurement": "Activity", "setting": "Homo sapiens [28]", "result": "Non-toxic"}]}
